According to PubChem BioAssay (NCI):
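Following 48 hours of exposure in 96-well plates, responses at five concentrations were used to interpolate endpoints linearly. Abbreviation: GI50, concentration required for 50% inhibition of growth. TGI: concentration producing complete growth inhibition.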

Tests used:
Test in all cases: inhibition of tumour cell growth, NCI panel, 48 h
M14 melanoma = system: M14 melanoma
OVCAR-4 ovarian = system: OVCAR-4 ovarian
CCRF-CEM leukemia = system: CCRF-CEM leukemia
CAKI-1 renal = system: CAKI-1 renal
HOP-62 NSCLC = system: HOP-62 NSCLC
MDA-MB-231 breast = system: MDA-MB-231 breast
A549 NSCLC = system: A549 NSCLC
UACC-257 melanoma = system: UACC-257 melanoma
IGROV1 ovarian = system: IGROV1 ovarian
MALME-3M melanoma = system: MALME-3M melanoma

Compound	GI50 (M14 melanoma) [µM]	TGI (M14 melanoma) [µM]	GI50 (OVCAR-4 ovarian) [µM]	TGI (OVCAR-4 ovarian) [µM]	GI50 (CCRF-CEM leukemia) [µM]	TGI (CCRF-CEM leukemia) [µM]	GI50 (CAKI-1 renal) [µM]	TGI (CAKI-1 renal) [µM]	GI50 (HOP-62 NSCLC) [µM]	TGI (HOP-62 NSCLC) [µM]	GI50 (MDA-MB-231 breast) [µM]	TGI (MDA-MB-231 breast) [µM]	GI50 (A549 NSCLC) [µM]	TGI (A549 NSCLC) [µM]	GI50 (UACC-257 melanoma) [µM]	TGI (UACC-257 melanoma) [µM]	TGI (IGROV1 ovarian) [µM]	TGI (MALME-3M melanoma) [µM]	GI50 (IGROV1 ovarian) [µM]	GI50 (MALME-3M melanoma) [µM]
CNCc1ccc(C)c(NC(=O)c2ccc(Nc3nc(-c4ccccc4)c4ccccc4n3)cc2)c1	1.83	3.4	1.84	4.79	2.07	5.43	1.87	3.57	1.96	3.67	1.74	3.43	1.78	3.4	1.92	3.73	–	–	–	–
O=C1OC2C(O)COC2(OCc2c[nH]c3ccccc23)C1O (stereo not given) (tested in a mixture with another compound)	–	> 100	–	> 100	–	> 100	–	> 100	–	> 100	–	–	–	> 100	–	> 100	> 100	> 100	–	–
CCOC(=O)c1ccccc1NC(c1ccccc1)c1ccc2cccnc2c1O (stereo not given)	–	–	3.21	> 100	2.32	> 100	3.05	> 100	3.31	> 100	5.59	72.7	3.3	> 100	2.98	21.5	24.1	–	4.01	–
Cc1nc2c(=O)n(C)c(=O)nc-2n(-c2ccc(Cl)cc2)c1C	–	> 100	–	84.4	–	> 100	–	> 100	–	> 100	–	–	–	> 100	–	> 100	> 100	> 100	–	–
O=[N+]([O-])c1ccc(-c2ccc(C3=Nn4c(nnc4-c4ccc(Cl)cc4)SC3)o2)cc1	–	> 100	–	> 100	–	> 100	–	> 100	–	> 76.3	–	–	–	> 100	–	> 100	> 100	> 91.6	–	–
O=C1c2ccccc2CC1C1(O)C(=O)Nc2c(Cl)cc(Cl)cc21 (stereo not given)	–	> 100	–	> 100	–	> 100	–	> 100	–	> 100	–	–	–	> 100	–	> 100	–	> 100	–	–
S=C(N/N=C/c1ccccc1)NC1CC(c2ccccc2)Oc2ccccc21 (stereo not given)	–	> 100	–	71.3	–	–	–	> 100	–	–	–	–	–	> 100	–	–	> 100	> 100	–	–
O=S(O)CCCSSCCCCSSCCCS(=O)O	–	> 100	–	> 100	–	> 100	–	> 100	–	> 100	–	–	–	> 100	–	> 100	> 100	> 100	–	–
CC1CCCC2(O1)OC1CC(=O)OC1C1=C2C(=O)c2ccccc2C1=O (stereo not given)	–	7.89	–	3.83	–	–	–	7.13	–	30.2	–	–	–	35.5	–	3.95	6.87	4.43	–	–
C=CC(=O)N1CC[C@@H](Oc2nc(Nc3ccc(N4CCC(N5CCN(C)CC5)CC4)cc3)c(C(N)=O)nc2CC)C1	> 100	> 100	> 100	> 100	> 100	> 100	–	–	–	–	> 100	> 100	> 100	> 100	> 100	> 100	> 100	> 100	> 100	> 100
Cc1cccc(NC(=O)c2sc3nc4c(cc3c2N)CCC4)c1C	0.236	2.4	1.33	22.8	0.321	35.8	0.332	56.7	0.428	17.4	0.594	29.3	0.453	13.5	2.67	46.6	53	–	0.766	–
CC(=O)OC12CCCCC1C1(CCCC1)NC2=O (stereo not given)	–	> 100	–	> 100	–	> 100	–	–	–	> 100	–	–	–	> 100	–	> 100	> 100	> 100	–	–
CC(=O)NC(Cc1ccccc1)C(=S)N1CCCC1 (stereo not given)	–	> 100	–	> 100	–	> 100	–	> 100	–	> 100	–	–	–	> 100	–	> 100	> 100	> 100	–	–
CCN(CC)CC(C(=O)Nc1c(C)cccc1C)/C(C)=N/NC(N)=S (stereo not given)	–	> 100	–	–	–	> 100	–	–	–	> 100	–	–	–	> 100	–	> 100	> 100	> 100	–	–
N#Cc1c(-c2ccc(Cl)cc2)n([O-])c2ccccc2[n+]1=O	–	–	2.94	8.82	2.63	8.2	–	–	16.7	30.9	6.95	24.2	22.2	55.4	18.2	34.4	15.6	–	2.89	–
O=c1[nH]c2cccccc-2c1-c1nc2ccccc2[nH]1	–	> 100	–	51.9	–	> 100	–	> 100	–	94.8	–	–	–	> 100	–	> 100	> 100	50.6	–	–
Cc1ccc(S(=O)(=O)NC(CCCCN)C(=O)CCl)cc1 (stereo not given)	> 100	> 100	> 100	> 100	–	–	37.8	> 100	63.5	> 100	> 100	> 100	> 100	> 100	> 100	> 100	> 100	> 100	> 100	68.7
CC(C)(O)C1CC(=O)C(C)(C2C(O)CC3(C)C4CC=C5C(CCC(O)C5(C)C)C4(C)C(=O)CC23C)O1 (stereo not given)	–	> 100	–	> 100	–	–	–	> 100	–	> 100	–	> 100	–	> 100	–	> 100	> 100	–	–	–
C/C=C\C(C)=C/C(C)C(=O)CC(O)CC1CC(=O)NC(=O)C1 (stereo not given)	–	> 100	–	> 100	–	> 100	–	> 67.5	–	> 100	–	> 100	–	> 100	–	> 100	> 100	–	–	–
COC(=O)c1c(OC(=O)c2ccccc2)noc1CC(=O)OC1C=CCCC1 (stereo not given)	–	> 100	–	> 100	–	> 100	–	> 100	–	> 100	–	–	–	> 100	–	> 100	> 100	> 100	–	–
